Here are results for six compounds from US5382679A, “Process for the preparation of glutathione S-acyl derivatives, compounds obtained from said process and an intermediate useful for the preparation thereof” (Boehringer Mannheim Italia S.p.A., priority 1990, dated 1995).

Series [1] can be described thus: Enzymatic hydrolysis of thioester bond in cytosol. In kind it is in vitro ADME. The conditions noted are these: GSH derivative 0, 16 mM; for enzymatic hydrolysis specific activity of thioester bond, Cytosol: mean ± SD on 6 tests. An excerpt: (§1) |The enzymatic hydrolysis specific activity of thioester |bond is expressed as -SH released nmoles/min/mg of […]. […] Spontaneous hy- |drolysis of the substrates ranges from 1% to 10% maxi- |mum. […] |sts.

A short description of series [2]: Enzymatic hydrolysis of thioester bond in serum. The class given is in vitro ADME. The conditions noted are these: GSH derivative 0, 16 mM, mean ± SD on 6 tests.
Excerpt: as §1

SMILES strings stand for the structures.

Consider `N[C@@H](CCC(=O)N[C@@H](CSC(=O)c1ccccc1)C(=O)NCC(=O)O)C(=O)O` [S-benzoyl, γ-L-glutamyl-S-benzoyl-L-cysteinyl-glycine], for which, in series [1], the “enzymatic hydrolysis specific activity of thioester bond, Cytosol” value is reported as 3,2 ± 1,1 -SH released nmoles/min/mg of and the “Ratio (intracellular to extracellular hydrolysis rate, Cytosol/Serum)” value is 80,0. Also, the “enzymatic hydrolysis specific activity of thioester bond, Serum” value in series [2] is 0,04 ± 0,005 -SH released nmoles/min/mg of.
On the same counts, the results for `N[C@@H](CCC(=O)N[C@@H](CSC(=O)Cc1ccccc1)C(=O)NCC(=O)O)C(=O)O` [S-phenylacetyl, γ-L-glutamyl-S-phenylacetyl-L-cysteinyl-glycine] are 6,7 ± 0,9 -SH released nmoles/min/mg of, 134,0 and 0,05 ± 0,003 -SH released nmoles/min/mg of.
With `CCOC(=O)CNC(=O)[C@H](CSC(=O)c1ccccc1)NC(=O)CC[C@H](N)C(=O)O` [S-benzoyl-monoethylester, ethyl γ-L-glutamyl-S-benzoyl-L-cysteinyl glycinate], in series [1], the “enzymatic hydrolysis specific activity of thioester bond, Cytosol” value is given as 0,6 ± 0,08 -SH released nmoles/min/mg of and the “Ratio (intracellular to extracellular hydrolysis rate, Cytosol/Serum)” value is 6,0. Besides, the “enzymatic hydrolysis specific activity of thioester bond, Serum” value in series [2] is 0,10 ± 0,004 -SH released nmoles/min/mg of.
Take `CC(C)(C)C(=O)SC[C@H](NC(=O)CC[C@H](N)C(=O)O)C(=O)NCC(=O)O` [S-pivaloyl, γ-L-glutamyl-S-pivaloyl-L-cysteinyl-glycine]: the “enzymatic hydrolysis specific activity of thioester bond, Cytosol” value in series [1] is given as 6,9 ± 0,7 -SH released nmoles/min/mg of. In series [2], the “enzymatic hydrolysis specific activity of thioester bond, Serum” value is recorded as 0 -SH released nmoles/min/mg of.
As for `CC(=O)SC[C@H](NC(=O)CC[C@H](N)C(=O)O)C(=O)NCC(=O)O` [S-acetyl, γ-L-glutamyl-S-acetyl-L-cysteinyl-glycine], in series [1], the “enzymatic hydrolysis specific activity of thioester bond, Cytosol” value was 10,8 ± 1,5 -SH released nmoles/min/mg of. The “enzymatic hydrolysis specific activity of thioester bond, Serum” value in series [2] is 0 -SH released nmoles/min/mg of.
Regarding `CCOC(=O)CNC(=O)[C@H](CSC(=O)c1ccccc1)NC(=O)CC[C@H](N)C(=O)OCC` [S-benzoyl-diethylester], in series [1], the “enzymatic hydrolysis specific activity of thioester bond, Cytosol” value was 1,45 ± 0,8 -SH released nmoles/min/mg of and the “Ratio (intracellular to extracellular hydrolysis rate, Cytosol/Serum)” value is reported as 18,5. The “enzymatic hydrolysis specific activity of thioester bond, Serum” value in series [2] is 0,07 ± 0,005 -SH released nmoles/min/mg of.
